# Source: patent US20090312286A1, “DERIVATIVES OF 4-TRIMETHYLAMMONIUM-3-AMINOBUTYRATE AND 4-TRIMETHYLPHOSPHONIUM-3-AMINOBUTYRATE AS CPT-INHIBITORS” (SIGMA-TAU INDUSTRIE FARMACEUTICHE RIUNITE S.P.A., priority 2006, published 2009)
# Columns and labels:
# [1] = target: T1, CPT1 in rat mitochondria (heart) (Rattus norvegicus, UniProt Q63704); assay: In vitro inhibition of CPT I, rat heart mitochondria; type: biochemical; conditions: CPT1, heart mitochondria of Fischer rats, 50 μM palmitoyl-CoA, 10 mM L-carnitine, 37° C., 1 minute
# T1 construct: fresh mitochondrial preparations obtained from the liver or heart of Fischer rats; from tissue; host or cells: rat heart mitochondria (Fischer rats)
# T1 sequence (Q63704 1-772): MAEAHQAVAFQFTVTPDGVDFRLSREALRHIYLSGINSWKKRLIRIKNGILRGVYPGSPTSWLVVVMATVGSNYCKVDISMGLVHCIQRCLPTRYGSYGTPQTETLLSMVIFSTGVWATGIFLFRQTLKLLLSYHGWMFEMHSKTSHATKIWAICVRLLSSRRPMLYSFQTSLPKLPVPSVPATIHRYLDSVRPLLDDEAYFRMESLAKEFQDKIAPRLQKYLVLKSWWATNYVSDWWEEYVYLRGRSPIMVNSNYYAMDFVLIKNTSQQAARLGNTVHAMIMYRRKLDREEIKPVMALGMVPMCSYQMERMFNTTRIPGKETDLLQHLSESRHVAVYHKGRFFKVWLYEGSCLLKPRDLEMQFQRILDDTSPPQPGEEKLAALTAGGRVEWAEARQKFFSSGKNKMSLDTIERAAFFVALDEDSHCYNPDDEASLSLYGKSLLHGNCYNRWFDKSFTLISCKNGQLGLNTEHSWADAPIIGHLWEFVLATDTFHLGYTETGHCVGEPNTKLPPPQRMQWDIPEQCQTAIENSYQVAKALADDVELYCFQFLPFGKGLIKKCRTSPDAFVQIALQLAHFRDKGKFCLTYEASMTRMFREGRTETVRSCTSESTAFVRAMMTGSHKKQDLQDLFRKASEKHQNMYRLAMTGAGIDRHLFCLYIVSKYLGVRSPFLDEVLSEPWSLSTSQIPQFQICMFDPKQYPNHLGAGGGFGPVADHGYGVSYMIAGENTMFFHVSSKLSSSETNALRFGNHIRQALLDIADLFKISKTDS
# Description: The inhibition of CPT was evaluated on fresh mitochondrial preparations obtained from the liver or heart of Fischer rats, fed normally; the mitochondria taken from the liver or heart are suspended in a 75 mM sucrose buffer, EGTA 1 mM, pH 7.5. 100 μl of a mitochondrial suspension, containing 50 μM of [^14C] palmitoyl-CoA (spec.act. 10000 dpm/mole) and 10 mM of L-carnitine, are incubated at 37° C. in the presence of stepped concentrations (0-3 mM) of product under examination.
# (§1) The IC50 is then determined.
# [2] = test system: β-hydroxybutyrate production; assay: Inhibition of ketone bodies production in vivo in fasted rats; design: species or system rat; conditions: for reduction of β-hydroxybutyrate levels / time to reach minimum β-hydroxybutyrate values: rats fasted 17 hours; for reduction of β-hydroxybutyrate levels: single oral dose equimolar to 10 mg/Kg of ST1326, measured at 3 and 6 hours; for time to reach minimum β-hydroxybutyrate values: single oral dose equimolar to 10 mg/Kg of ST1326, values stable for additional 3 hours; for ED50: Rattus norvegicus, single oral treatment, calculated on AUC of β-hydroxybutyrate from time 0 to 9 hours
# Description: The compounds were administered per os at 9:00 after 17 hours of fasting (n=5) at doses equimolar to 10 mg/kg of ST1326, which is used as reference compound.
# The inhibition of CPT and consequently of β-hydroxybutyrate production operated by ST2425 and ST2452 was evaluated in vivo in rats fasted from 17 hours, at doses equimolar to 10 mg/Kg of ST1326 used as reference compound. β-hydroxybutyrate levels were measured at 3 and 6 hours from single oral treatment.
# For compound ST2425, inhibition of ketone bodies production was also evaluated at the dosages of 0, 1, 3, 7, 10 mg/kg in rats fasted for 16 hours, following the reduction of β-hydroxybutyrate for 9 hours after single oral treatment.
# db/db mice = assay: Antihyperglycemic activity in db/db mice; type: in vivo, mouse; conditions: vs control
# Description: ST2425 and ST2452 were administered to db/db mice for 12 days at 30 mg/kg/day, using ST1326 at a higher dose (80 mg/kg/day) as reference compound. At the end of the treatment, serum glucose levels were evaluated after 16 hours fasting and 2 hours from last administration.
# [3] = target: T2, CPT1 in rat mitochondria (liver) (Rattus norvegicus, UniProt P32198); assay: In vitro inhibition of CPT I, rat liver mitochondria; type: biochemical; conditions: for IC50: CPT1, liver mitochondria of Fischer rats, 50 μM palmitoyl-CoA, 10 mM L-carnitine, 37° C., 1 minute; for Ratio: IC50 (heart) / IC50 (liver)
# T2 construct: fresh mitochondrial preparations obtained from the liver or heart of Fischer rats; from tissue; host or cells: rat liver mitochondria (Fischer rats)
# T2 sequence (P32198 1-773): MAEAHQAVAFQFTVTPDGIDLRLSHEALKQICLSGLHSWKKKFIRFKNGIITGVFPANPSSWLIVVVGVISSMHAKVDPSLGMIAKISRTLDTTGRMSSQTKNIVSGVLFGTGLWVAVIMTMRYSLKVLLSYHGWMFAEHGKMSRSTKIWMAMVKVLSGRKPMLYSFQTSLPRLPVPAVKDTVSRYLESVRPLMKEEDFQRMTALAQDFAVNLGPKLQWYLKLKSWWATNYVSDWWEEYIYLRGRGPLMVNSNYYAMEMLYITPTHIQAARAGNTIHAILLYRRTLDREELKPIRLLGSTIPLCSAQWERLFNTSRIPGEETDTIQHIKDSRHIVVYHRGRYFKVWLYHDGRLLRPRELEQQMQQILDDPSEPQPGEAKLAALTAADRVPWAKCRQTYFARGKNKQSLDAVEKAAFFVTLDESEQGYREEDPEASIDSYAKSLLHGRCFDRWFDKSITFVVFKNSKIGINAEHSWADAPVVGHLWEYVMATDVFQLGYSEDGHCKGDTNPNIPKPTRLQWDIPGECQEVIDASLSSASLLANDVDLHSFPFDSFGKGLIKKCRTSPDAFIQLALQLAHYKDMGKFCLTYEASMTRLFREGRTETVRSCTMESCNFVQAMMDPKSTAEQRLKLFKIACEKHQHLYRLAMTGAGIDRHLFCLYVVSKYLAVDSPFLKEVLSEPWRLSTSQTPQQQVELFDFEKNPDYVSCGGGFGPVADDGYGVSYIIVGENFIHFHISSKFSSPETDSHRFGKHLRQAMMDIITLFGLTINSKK
# Description: 100 μl of a mitochondrial suspension, containing 50 μM of [^14C] palmitoyl-CoA (spec.act. 10000 dpm/mole) and 10 mM of L-carnitine, are incubated at 37° C. in the presence of stepped concentrations (0-3 mM) of product under examination.
# as §1
# Sprague Dawley rats = assay: Effect on food intake of intranasal administration in normal rats; type: in vivo; conditions: intranasal 320 μg/40 μL/rat for 3 days, starting from the day after the second treatment, FIG. 3
# Description: FIG. 3 reports the food intake (expressed as g/kg b.w.) in Sprague Dawley rats, treated intranasally for 3 days with ST2425 (320 μg/40 μl/rat) equally subdivided in the two nostrils. (Mean±S.D. (n=5). One way ANOVA post-hoc test SNK *p≦0.05 vs Control)
# To test the activity on food consumption of the compounds of the present invention after intranasal administration, ST2425 was given to normally-fed Sprague Dawley rats (320 μg/40 μL/rat, in citrate buffer 10 mmol/L pH 5.0, equally subdivided into the two nostrils) 2 h before the dark cycle. The compound was administered for 3 days (starting from day 0) and food consumption was measured every time for the following 24 h. Five rats were considered for each group.
# C57BL/6J mice = assay: Effect on food intake and body weight of repeated intracerebroventricular administration; type: in vivo, mouse; conditions: for Mice weight / 24 hours food intake: C57BL6/J mice, Mean ± S.D.
# Description: Two groups of 8 C57BL/6J mice each (ST2425 and Control) were injected icv (3 μL) with 250 pmoles (0.113 μg) of ST2425 dissolved in RPMI 1640 (vehicle), for 4 days (starting from day 0). The animals were slightly confused by isofluorane anestesia. The head was positioned in an apparatus used to reveal a “virtual bregma” without opening the skin. The injection was performed with a syringe at 3.5 mm of depth, using the following coordinates from Bregma: 1 mm on the left of the midsagittal suture and 3 mm posterior (lateral ventricle). The animals were treated at 5:00 p.m. and food intake was monitored at 8:00 a.m. of the day after. Starting from the day after the first treatment, food was removed from 8:00 a.m. to 5:00 p.m.
# Statistical analysis was performed using two way repeated measures ANOVA followed by Student, Newman, Keuls test as post-hoc analysis.
# [4] = day 1, icv 250 pmoles for 4 days
# [5] = day 2, icv 250 pmoles for 4 days
# [6] = day 3, icv 250 pmoles for 4 days
# [7] = day 4, icv 250 pmoles for 4 days
# [8] = days 3 and 4, statistically significant
# [9] = over the experiment, icv 250 pmoles for 4 days
smiles,measurement,setting,value
"CCCCCCOc1cccc(OCCCCNC(=O)N[C@H](CC(=O)[O-])C[P+](C)(C)C)c1 [ST2452, (R)-4-trimethylphosphonium-3-[[4-[(3-hexyloxy)phenoxy]butyl]carbamoyl]-amino-butyrate]",IC50,[1],57.3 µM
same,reduction of β-hydroxybutyrate levels,[2],higher and faster with respect to ST1326
same,time to reach minimum β-hydroxybutyrate values,[2],3 h
same,reduction of glucose levels,db/db mice; 30 mg/kg/day for 12 days,30%
same,IC50,[3],0.12 µM
same,Ratio,[3],478
"CCCCCCOc1cccc(OCCCCNC(=O)N[C@H](CC(=O)[O-])C[N+](C)(C)C)c1 [ST2425, (R)-4-trimethylammonium-3-[[4-[(3-hexyloxy)-phenoxy]butyl]carbamoyl]-amino-butyrate]",food consumption with respect to controls,Sprague Dawley rats,significant reduction of food consumption
same,Mice weight,"C57BL/6J mice; day 0, icv 250 pmoles for 4 days",22.2 ± 0.91 g
same,24 hours food intake,C57BL/6J mice; [4],3.15 ± 0.61 g
same,Mice weight,C57BL/6J mice; [4],21.2 ± 0.96 g
same,24 hours food intake,C57BL/6J mice; [5],3.31 ± 0.70 g
same,Mice weight,C57BL/6J mice; [5],20.5 ± 1.14 g
same,change of mice weight,"C57BL/6J mice; day 2, statistically significant",−5%
same,24 hours food intake,C57BL/6J mice; [6],3.35 ± 0.73 g
same,Mice weight,C57BL/6J mice; [6],20.0 ± 0.69 g
same,24 hours food intake,C57BL/6J mice; [7],3.55 ± 0.63 g
same,Mice weight,C57BL/6J mice; [7],20.1 ± 0.64 g
same,change of mice weight,C57BL/6J mice; [8],−10%
same,reduction of food intake,C57BL/6J mice; [8],about 30%
same,change of food consumption with respect to the control group,C57BL/6J mice; [9],−25%
same,change of mice weight with respect to the control group,C57BL/6J mice; [9],−7%
same,IC50,[1],31.6 µM
same,ED50,[2]; rats fasted 16 hours,3.7 mg/kg
same,"effect on ketone bodies levels, dose relation","[2]; fasted rats, FIG. 2",dose-related effect
same,onset of action on ketone bodies levels,"[2]; rats fasted 16 hours, single oral treatment 1-10 mg/kg, FIG. 2",faster onset of action
same,reduction of β-hydroxybutyrate levels,[2],higher and faster with respect to ST1326
same,time to reach minimum β-hydroxybutyrate values,[2],3 h
same,reduction of glucose levels,db/db mice; 30 mg/kg/day for 12 days,41%
same,IC50,[3],0.27 µM
same,Ratio,[3],117
"CCCCCCCCCCCCCCNC(=O)N[C@H](CC(=O)[O-])C[N+](C)(C)C [ST1326, R-4-trimethyl ammonium-3-(tetradecylcarbamoyl)-aminobutyrate, reference compound]",ED50,[2]; rats fasted 16 hours,14.5 mg/kg
same,reduction of glucose levels,db/db mice; 80 mg/kg/day for 12 days,26%
same,Ratio,[3],135
